Measured values published in US8455473B2, “Composition and method for irrigation of a prepared dental root canal” (The University of British Columbia, priority 2008, dated 2013).

Assays:
[1] = tested on: Enterococcus faecalis A197A; format: cell-based; conditions: all exposure times (5 seconds, 30 seconds, 3 minutes); detection level 99.995% killing
Description: The antibacterial activity of the composition was evaluated by exposing a planktonic culture (in suspension) of Enterococcus faecalis A197A, a resistant bacterial species often isolated from treatment resistant endodontic infections (root canal infections). In the evaluation, cultures were exposed for 5 seconds, 30 seconds, and 3 minutes. Detection level was at 99.995% killing.

enterococci = conditions: saturated calcium hydroxide solution (pH≧12.5), in vitro; cited from earlier work
yeasts = conditions: saturated calcium hydroxide solution (pH≧12.5), in vitro; cited from earlier work

Compound	survival of Enterococcus faecalis A197A (cfu %) [1] [%]	time to kill enterococci (enterococci) [min]	time to kill yeasts (yeasts) [h]
O=C(O)CN(CCN(CC(=O)O)CC(=O)O)CC(=O)O [17% EDTA, ethylenediamine tetraacetic acid]	100	–	–
[Ca+2].[OH-].[OH-] [calcium hydroxide, Calcium hydroxide]	–	≤ 20	≤ 6
